Reference: patent publication US10675254B2, “Sphingosine-1-phosphate receptor agonist iontophoretic devices and methods of using the same” (Teikoku Seiyaku Co., Ltd., priority 2013, dated 2020)
Counter-ions that a name gives are not always drawn.

What was measured:
[1] = In vitro iontophoretic delivery (active + passive) of Fingolimod HCl through epidermis of cadaver skin, Franz cell; type: in vitro ADME; conditions: for Active + passive Maximum delivery efficiency: donor 0.5% Fingolimod HCl solution, 8 hr; for Active + passive Maximum delivery efficiency / Active + passive Average delivery efficiency: 0.425 mA, 1.77 cm2; for Active + passive Average delivery efficiency: Ag anode/AgCl cathode, 48 hr
[2] = In vitro passive delivery of Fingolimod HCl through epidermis of cadaver skin, Franz cell (control); type: in vitro ADME; conditions: for Passive Maximum delivery efficiency: donor 0.5% Fingolimod HCl solution, 8 hr; for Passive Maximum delivery efficiency / Passive Average delivery efficiency: 1.77 cm2; for Passive Average delivery efficiency: 48 hr
Excerpt: Passive delivery under the same experimental conditions was also concurrently investigated with the iontophoretic delivery and employed as a control. […] The maximum efficiency could be reached at a concentration of less than 0.25%. After 8 hr., some passive delivery of fingolimod HCl through the skin was also observed. This observation may have resulted from the imperfection of the skin and the experimental design. In this study, the presence of pores from the micro-sized damage of the epidermis during the preparation of the epidermal membrane and from the appendages (hair follicles, sweat ducts) might facilitate the contact between donor and receptor site and contribute to the passive delivery of fingolimod HCl solution into the receptor solution.

[3] = orally administered fingolimod HCl; cited from earlier work
[4] = donor 0.25% fingolimod HCl solution, receptor 0.09% NaCl
[5] = donor 0.50% fingolimod HCl solution, receptor 0.09% NaCl
[6] = donor 0.75% fingolimod HCl solution, receptor 0.09% NaCl
[7] = donor 1% fingolimod HCl solution, receptor 0.09% NaCl
[8] = donor 2% fingolimod HCl solution, receptor 0.09% NaCl

In the case of CCCCCCCCc1ccc(CCC(N)(CO)CO)cc1 [Fingolimod HCl, 2-amino-2-[2-(4-octylphenyl)ethyl]propane-1,3-diol], the “delivery efficiency (active+passive)” value ([1]; 0.25, 0.5, 0.75, 1 and 2% fingolimod HCl solutions, current 0.425 mA, area 1.77 cm^2) was “about 4.5 μg/cm2/hr”, the “Active + passive Maximum delivery efficiency” value ([1]; Ag/AgCl electrodes, receptor 0.9% NaCl) was 5.0 ug/cm2/hr and the “Active + passive Maximum delivery efficiency” value ([1]; Zn/AgCl electrodes, receptor 0.09% NaCl) was 16.8 ug/cm2/hr. The “Active + passive Maximum delivery efficiency” value ([1]; Zn/AgCl electrodes, receptor 0.9% NaCl) was 5.8 ug/cm2/hr, the “Active + passive Average delivery efficiency” value [1, 4] was 4.8 ug/cm2/hr and the “Active + passive Average delivery efficiency” value [1, 5] was 5.0 ug/cm2/hr. For the same molecule, the “Active + passive Average delivery efficiency” value [1, 6] was 4.5 ug/cm2/hr, the “Active + passive Average delivery efficiency” value [1, 7] was 4.5 ug/cm2/hr and the “Active + passive Average delivery efficiency” value [1, 8] was 4.2 ug/cm2/hr. The “Passive Maximum delivery efficiency” value ([2]; receptor 0.09% NaCl) was 0 ug/cm2/hr, the “Passive Maximum delivery efficiency” value ([2]; receptor 0.9% NaCl) was 0 ug/cm2/hr and the “Passive Average delivery efficiency” value [2, 4] was 0.8 ug/cm2/hr. For the same molecule, the “Passive Average delivery efficiency” value [2, 5] was 0.9 ug/cm2/hr, the “Passive Average delivery efficiency” value [2, 6] was 0.8 ug/cm2/hr and the “Passive Average delivery efficiency” value [2, 7] was 0.7 ug/cm2/hr. The “Passive Average delivery efficiency” value [2, 8] was 1.4 ug/cm2/hr, the passive delivery detected ([2]; over an 8 h period, 0.5% Fingolimod HCl solution) was “no Fingolimod HCl delivery was detected” and the “peak to trough fluctuations, non-phosphorylated fingolimod” value [3] was at most 20%. For the same molecule, the “peak to trough fluctuations, phosphorylated (active) form of fingolimod” value [3] was at most 45%.
